SMILES strings stand for the structures.

The melting point is the temperature, or range, at which the solid turns liquid. `CCn1c(CCO)nc(C(C)C)c1Sc1cc(Cl)cc(Cl)c1` gave a melting point of 80 to 81 °C.

For the compound `CC1(C)c2cc(C#N)ccc2OC1OC(=O)CCl` (centres undefined), the melting point is 138 °C.

`Nc1nc2c(c(Nc3ccc(Br)cc3)n1)-c1ccccc1C2` showed a melting point of 214 to 215 °C.

Take `Clc1ccc(N=c2ccn3ccccc3c2)cc1`: the melting point fell in the range of 183 to 184 °C.

The compound `CC(=O)SCCc1cn2cccnc2n1` returned a melting point of 122 to 124 °C.

Turning to `Fc1ccc(-c2[nH]cc(CCCN3CCCCC3)c2-c2ccncc2)cc1`, the melting point lay within 195 to 197 °C.

As for `COc1ccc2[nH]cc(C=C3SC(=S)N(CC(=O)O)C3=O)c2c1`, the melting point was 266 °C.

For `Cc1nc2c(O[C@@H]3c4ccccc4C[C@H]3O)cc(C(=O)N(C)C)cn2c1C` (relative stereo), the melting point amounted to 122 °C.

For the compound `CCC(Cc1ccc(OC)c(CC(=O)Nc2ccc(C(F)(F)F)cc2)c1)C(=O)O` (centres undefined), the melting point lay in the range of 136 to 137 °C.

Consider `COc1cc2c(OC)cccc2cc1-c1nc2cnccc2[nH]1`, for which the melting point lay within 178 to 180 °C.

In turn, `CSc1ccc(C(C)=Cc2ccc3ccccc3c2)cc1` gave a melting point of 161 °C.

Compound `O=C(O)C1=CCCN1C(=O)CCS` returned a melting point of 94 to 96 °C.

Regarding `CCN(CCOc1cccc2ccccc12)c1ccc(C(=O)O)cc1`, the melting point lay in the range of 205 to 206 °C.

`COC(=O)C1=CC=C(/C=C/c2ccc(OC)cc2)C2=CC(C(C)C)=CC=C(C)C2=C1C(=O)OC` displayed a melting point of 161 to 162 °C.

Take `O=C(O)C(=O)c1ccc(OCCOc2cc3ccccc3cc2OCCO)cc1`: the melting point lay in the range of 176 to 177 °C.

For the compound `CCC1(CCCCN2CCN(c3ccc(OC)cc3)CC2)C(=O)Nc2ccccc21` (centres undefined), the melting point was in the range of 109 to 110 °C.

Regarding `O=C(C1CCCN1)N1CCN(c2nc(N3CCCC3)nc(N3CCCC3)n2)CC1` (centres undefined), the melting point is 143 °C.

As to `CS(=O)(=O)c1ccc(N2CC(O)(C(F)(F)F)N=C2c2ccccn2)cc1` (centres undefined), the melting point was 195 to 198 °C.

`O=C(N[C@@H]1C(=O)N[C@@H]1C=Cc1ccccc1)OCc1ccccc1` returned a melting point of 201 to 204 °C.

As to `OC(c1ccccc1)c1ccc2[nH]nnc2c1` (centres undefined), the melting point worked out at 143 °C.

For the compound `COc1ccccc1N1CCN(CCc2ccc3[nH]c(=O)oc3c2)CC1`, the melting point fell in the range of 182 to 184 °C.

Take `CC(C)(C)CCc1nn(-c2ccc(F)cc2F)c2c1C1CCC2C1` (centres undefined): the melting point lay in the range of 54 to 57 °C.

For the compound `O=C(Cl)C(=O)N1CCOC1=O`, the melting point was 57 °C.

As to `CNC(=O)CC1CSc2c(C(=O)OC(C)C)c(C)cn21` (centres undefined), the melting point fell in the range of 108 to 109 °C.

As to `CCCN(CCC)Cc1cnc(-c2ncn3c2CN(C)C(=O)c2ccccc2-3)o1`, the melting point lay within 133 to 135 °C.

Compound `c1ccc(-n2c(-c3ccc(OCCN4CCCCC4)cc3)nc3ccccc32)cc1` returned a melting point of 107 °C.

Compound `COC(=O)NC1(Cl)C=CC=CN1CC(COc1cccc2ccccc12)OC(=O)OC` (centres undefined) gave a melting point of 133 to 135 °C.

`O=C(C=CC1CCCCC1)NCCc1cccc(OCc2ccccc2)c1` yielded a melting point of 98 to 100 °C.

`c1ccc(-c2cnn3cc(-c4ccc(CCCN5CCOCC5)cc4)cnc23)cc1` showed a melting point of 147 to 149 °C.

Regarding `CC(=O)Oc1ccccc1C1SC[C@@H](C(=O)O)N1C(=O)CCSC(C)=O` (some centres undefined), the melting point fell in the range of 144 to 145 °C.

The compound `CC1=NN=C(c2ccc(NC(=O)CN(C)C)cc2)c2cc3c(cc2C1)OCO3` registered a melting point of 211 to 213 °C.

Consider `CCN(c1ccc(Cl)cc1C(N)=O)S(=O)(=O)c1ccc(C)cc1`, for which the melting point was in the range of 148 to 150 °C.

Turning to `CCCc1nc2c(N)nc3ccccc3c2n1CCCC(C)N(OC)C(=O)Nc1ccccc1` (centres undefined), the melting point fell in the range of 140 to 142 °C.

Consider `COC(=O)c1c(C(=O)OC)c(C(C)C)n(CCC2CC(O)CC(=O)O2)c1-c1ccc(F)cc1` (centres undefined), for which the melting point was 167 to 170 °C.

Regarding `C=C(c1ccc(N(CC)CC)cc1)c1ccc(N(CC)CC)cc1`, the melting point was 100 to 102 °C.

As to `CSc1ccc(NC(=N)c2ccc(Cl)cc2)cc1`, the melting point lay within 148 to 150 °C.

Turning to `CCCCCCCCOc1cnc(-c2ccc(CCCCCC(C)OC(C)=O)cc2)nc1` (single isomer, unassigned; (+)), the melting point was in the range of 73 to 74 °C.

Regarding `COCc1nnc2ccc(-c3cccc(C(F)(F)F)c3)nn12`, the melting point lay in the range of 149 to 150 °C.

In turn, `CNCc1cccc(NC(=O)c2c[nH]c3c2C(=O)CCC3)c1` showed a melting point of 130 to 132 °C.

`Cc1ccnc(C)c1NC(=O)NCCCl` returned a melting point of 122 to 124 °C.

`COc1ncccc1C(=O)Nc1ccn2cc(-c3ccccc3)nc2n1` yielded a melting point of 225 to 226 °C.

Take `CCOc1ccc(-c2nc(-c3cccc(C(=O)O)c3)cs2)cc1OCC`: the melting point lay within 192 to 193 °C.

For the compound `COc1ccc(-n2nc(O)c3c(c2=O)Cc2ccc(Cl)cc2N3)c(C)c1`, the melting point was in the range of 264 to 266 °C.

As for `N#CCCNC(=O)c1cccc(-c2cccc3nn(Cc4cccc(C(F)(F)F)c4)cc23)c1`, the melting point fell in the range of 187 to 188 °C.

Compound `Nc1nc2[nH]c(CCC#Cc3ccsc3C(=O)N[C@@H](CCC(=O)O)C(=O)O)cc2c(=O)[nH]1` came in with a melting point of 177 to 178 °C.

Consider `CCCC(C)n1sc2ccccc2c1=O` (centres undefined), for which the melting point fell in the range of 52 to 54 °C.

On to `N[C@@H](CO)C(=O)NC(=O)N(CCCl)N=O`, for which the melting point was 117 to 120 °C.

Turning to `CCOc1cc(CO)ccc1OCc1nc(-c2ccccc2)oc1C`, the melting point was in the range of 130 to 131 °C.

`CC1(C)CCC(C)(C)c2cc(O)ccc21`: the melting point is 142 °C.

The compound `COc1cc2c(cc1OC)-c1cc(N(c3c(C)cc(C)cc3C)C(C)C)nc(=O)n1CC2` gave a melting point of 182 to 183 °C.

On to `Cc1oc(-c2ccccc2)nc1COc1ccc(Cn2cc(/C=C/C(=O)O)c(-c3ccccc3)c2)cc1`, for which the melting point is 154 to 155 °C.

Take `CCOC(=O)C1Sc2ccccc2C1=O` (centres undefined): the melting point lay within 138 to 140 °C.

The compound `CCOC(=O)c1csc(C=O)n1` registered a melting point of 65 to 67 °C.

Turning to `NCC(=O)N[C@@H]1CN2C(=O)N(c3cc(Cl)nc(Cl)c3)C(=O)[C@@]2(Cc2ccc(OC(F)(F)F)cc2)C1`, the melting point is 114 °C.

`NC(=O)c1cc(C(O)CN(Cc2ccccc2)Cc2ccccc2)cc2cc[nH]c12` (centres undefined) gave a melting point of 116 to 118 °C.

`CC(C)Oc1cccc(-n2c(=S)[nH]c3ccccc3c2=O)c1` came in with a melting point of 288 to 290 °C.

For the compound `CCOC(=O)CN1CCC2(CC1)CC(c1ccc(C#N)cc1)=NO2`, the melting point is 116 to 118 °C.

For `CCN(CC)C(=O)c1cc(-c2ccccc2)c2occc2c1`, the melting point stood at 56 °C.

Take `O=C(OI(OC(=O)C(F)(F)F)C(F)(F)C(F)(F)C(F)(F)C(F)(F)C(F)(F)C(F)(F)C(F)(F)F)C(F)(F)F`: the melting point was in the range of 68 to 70 °C.

The compound `N#CCCNC(=O)c1cccc(-c2cccn3c(=O)n(Cc4cccc(C(F)(F)F)c4)nc23)c1` returned a melting point of 217 to 219 °C.

`NC(=O)Nc1ccc2c(=O)n(CCCCN3CC=C(c4ccccc4)CC3)c(=O)[nH]c2c1` yielded a melting point of 260 °C.

`CCOP(=O)(C=Cc1ccc(N)cc1)OCC`: the melting point turned out to be 81 °C.

`CCCCCCCCCCCCC1N(C)c2cccc3cccc(c23)N1C` came in with a melting point of 30 to 32 °C.

Consider `CC(=O)c1cnc(Cl)c(Cl)c1`, for which the melting point was 80 °C.

The record behind these values is a melting point compilation (Tetko et al.; mined from patent text by program, amines drawn as free bases though some values may be those of a salt).
